Assay results as given in ChEMBL document CHEMBL3045860, “The effect of sodium bicarbonate alone or in combination with a reduced dose of tebuconazole on the control of apple scab” (Crop Prot, 2006).

Legend:
Type in all cases: organism-based
Conditions in all cases: in vivo
Malus domestica [1] = assay: Phytotoxicity in Malus x domestica (apple) assessed as width of harvested fruit at 0.025% […] (reference value: 76 mm)
Malus domestica [2] = assay: Phytotoxicity in Malus x domestica (apple) assessed as total soluble solid of harvested fruit at 0.025% by refractometric analysis (reference value: 14%)
Malus domestica [3] = assay: Phytotoxicity in Malus x domestica (apple) assessed as mass of harvested fruit at 0.025% […] (reference value: 181 g)
Malus domestica [4] = assay: Phytotoxicity in Malus x domestica (apple) assessed as length of harvested fruit at 0.025% […] (reference value: 63.3 mm)

## CC(C)(C)C(O)(CCc1ccc(Cl)cc1)Cn1cncn1 (centres undefined) [TEBUCONAZOLE]
Malus domestica [1]
  Activity: 80.3 mm
Malus domestica [2]
  Activity: 14.1%
Malus domestica [3]
  Activity: 229 g
Malus domestica [4]
  Activity: 68 mm
